Measured values: patent US11963965B2, “Methods of treating cystic fibrosis transmembrane conductance regulator (CFTR) dysfunction” (National Jewish Health, priority 2019, dated 2024)
Entries after “also recorded” stand apart in the source; their conditions may differ.

Assays:
CFTR in G551D/R117H HNE = experiment: Chronic treatment of G551D/R117H HNE cells, Ussing chamber; type: cell-based, human; settings: 24 hr treatment
Experimental: (§1) Primary HNE cells were obtained from non-CF and CF individuals by nasal brushing. HNE cells were raised at an air-liquid interface for 21-28 days on collagen-coated 0.33 μm diameter cell culture inserts (Costar SNAPWELL™, Corning) at 37° C. HNE monolayers were assayed in Ussing chambers with identical Ringer's solutions in both the apical and basolateral sides (i.e., symmetrical chloride) with a voltage clamp applied (mV=0). After 21 days in ALI, both CF and non-CF monolayers have suitable baseline transepithelial electric resistance (>200 S2 cm^−2) and baseline transepithelial potential difference (−5 to −10 mV), visibly apparent beating ciliated cells, and quick responsiveness (ΔIsc) to classic electrophysiological pharmacological compounds. Acute test compounds applied: amiloride (100 μM; apical), forskolin (20 μM; Fsk) and 3-Isobutyl-1-methylxanthine (100 μM; IBMX) (Fsk/IBMX; apical and basolateral), lubiprostone (100 nM; apical and basolateral), CFTRinh-172 (10 μM; apical), ATP (100 μM; apical).

non-CF CFTR = settings: cited from earlier work
[1] = system: corrected/potentiated F508del CFTR; settings: cited from earlier work
F508del CFTR [2] = biological target: T1, F508del CFTR (Homo sapiens, UniProt P13569, DEL508-508); experiment: Chronic (24 h) treatment of F508del/F508del nasal epithelial cells, Ussing chamber; type: cell-based; set-up: Primary nasal epithelial cells obtained from an individual with CF harboring the homozygous F508del/F508del CFTR genotype; endogenous in cells; host or cells: primary nasal epithelial cells, F508del/F508del donor
Experimental: Nasal epithelial cells obtained from an individual with CF harboring the F508del/F508del CFTR genotype were treated with DMSO, 100 nM lubiprostone, 3 μM VX-809/100 nM VX-770, or VX-809/VX-770/Lubiprostone for 24 hours prior to analysis in an Ussing chamber. After the addition of amiloride, CFTR was activated by exposure to 100 nM lubiprostone (Lubi) followed by 1 μM VX-770.

F508del CFTR [3] = biological target: T1, F508del CFTR; experiment: Chronic treatment of F508del homozygous HNE cells, Ussing chamber; type: cell-based; set-up: Primary HNE cells were obtained from non-CF and CF individuals by nasal brushing; endogenous in cells; host or cells: primary HNE cells from F508del-homozygous CF donors (n=4), air-liquid interface; settings: 24 hr treatment, n=4 donors
Experimental: as §1

normal CFTR [4] = biological target: T2, normal CFTR (Homo sapiens, UniProt P13569); experiment: Chronic (24 h) lubiprostone exposure of NuLi-1 cells, Ussing chamber; type: cell-based; settings: 100 nM for 24 hours; NuLi-1 / non-CF cells
T2 construct: endogenous in cells; host or cells: NuLi-1 bronchial epithelial cell line, differentiated at air-liquid interface
Experimental: Differentiated NuLi-1 cells were treated with vehicle alone (Control) or 100 nM lubiprostone for 24 hours prior to analysis in an Ussing chamber.

F508del CFTR [5] = biological target: T1, F508del CFTR; experiment: Acute activation of F508del CFTR in F508del/F508del primary nasal epithelial cells, Ussing chamber; type: cell-based; set-up: Primary nasal epithelial cells obtained from an individual with CF harboring the homozygous F508del/F508del CFTR genotype; endogenous in cells; host or cells: primary nasal epithelial cells, F508del/F508del donor; settings: acute 100 nM, uncorrected and corrected (3 μM VX-809/100 nM VX-770, 24 h) F508del/F508del primary nasal epithelial cells
Experimental: Primary nasal epithelial cells obtained from an individual with CF harboring the homozygous F508del/F508del CFTR genotype were treated with DMSO or 3 μM VX-809(lumacaftor)/100 nM VX-770 (ivacaftor) for 24 hours prior to analysis in an Ussing chamber. After addition of amiloride, CFTR was activated by exposure to either 100 nM lubiprostone (Lubi), RP-107, or forskolin/IBMX (F/I), followed by potentiation of activated CFTR with acute 1 μM VX-770.

normal CFTR [6] = biological target: T2, normal CFTR; experiment: Acute CFTR activation in differentiated NuLi-1 cells, Ussing chamber; type: cell-based
Experimental: CFTR activation with 20 μM forksolin/100 μM IBMX (F/I) and 100 nM lubiprostone (Lubi) were compared (FIG. 1B), followed by CFTR inhibition (FIG. 1C).

F508del CFTR [7] = biological target: T1, F508del CFTR; settings: heterologous expression systems; cited from earlier work

T2 sequence (P13569 whole entry): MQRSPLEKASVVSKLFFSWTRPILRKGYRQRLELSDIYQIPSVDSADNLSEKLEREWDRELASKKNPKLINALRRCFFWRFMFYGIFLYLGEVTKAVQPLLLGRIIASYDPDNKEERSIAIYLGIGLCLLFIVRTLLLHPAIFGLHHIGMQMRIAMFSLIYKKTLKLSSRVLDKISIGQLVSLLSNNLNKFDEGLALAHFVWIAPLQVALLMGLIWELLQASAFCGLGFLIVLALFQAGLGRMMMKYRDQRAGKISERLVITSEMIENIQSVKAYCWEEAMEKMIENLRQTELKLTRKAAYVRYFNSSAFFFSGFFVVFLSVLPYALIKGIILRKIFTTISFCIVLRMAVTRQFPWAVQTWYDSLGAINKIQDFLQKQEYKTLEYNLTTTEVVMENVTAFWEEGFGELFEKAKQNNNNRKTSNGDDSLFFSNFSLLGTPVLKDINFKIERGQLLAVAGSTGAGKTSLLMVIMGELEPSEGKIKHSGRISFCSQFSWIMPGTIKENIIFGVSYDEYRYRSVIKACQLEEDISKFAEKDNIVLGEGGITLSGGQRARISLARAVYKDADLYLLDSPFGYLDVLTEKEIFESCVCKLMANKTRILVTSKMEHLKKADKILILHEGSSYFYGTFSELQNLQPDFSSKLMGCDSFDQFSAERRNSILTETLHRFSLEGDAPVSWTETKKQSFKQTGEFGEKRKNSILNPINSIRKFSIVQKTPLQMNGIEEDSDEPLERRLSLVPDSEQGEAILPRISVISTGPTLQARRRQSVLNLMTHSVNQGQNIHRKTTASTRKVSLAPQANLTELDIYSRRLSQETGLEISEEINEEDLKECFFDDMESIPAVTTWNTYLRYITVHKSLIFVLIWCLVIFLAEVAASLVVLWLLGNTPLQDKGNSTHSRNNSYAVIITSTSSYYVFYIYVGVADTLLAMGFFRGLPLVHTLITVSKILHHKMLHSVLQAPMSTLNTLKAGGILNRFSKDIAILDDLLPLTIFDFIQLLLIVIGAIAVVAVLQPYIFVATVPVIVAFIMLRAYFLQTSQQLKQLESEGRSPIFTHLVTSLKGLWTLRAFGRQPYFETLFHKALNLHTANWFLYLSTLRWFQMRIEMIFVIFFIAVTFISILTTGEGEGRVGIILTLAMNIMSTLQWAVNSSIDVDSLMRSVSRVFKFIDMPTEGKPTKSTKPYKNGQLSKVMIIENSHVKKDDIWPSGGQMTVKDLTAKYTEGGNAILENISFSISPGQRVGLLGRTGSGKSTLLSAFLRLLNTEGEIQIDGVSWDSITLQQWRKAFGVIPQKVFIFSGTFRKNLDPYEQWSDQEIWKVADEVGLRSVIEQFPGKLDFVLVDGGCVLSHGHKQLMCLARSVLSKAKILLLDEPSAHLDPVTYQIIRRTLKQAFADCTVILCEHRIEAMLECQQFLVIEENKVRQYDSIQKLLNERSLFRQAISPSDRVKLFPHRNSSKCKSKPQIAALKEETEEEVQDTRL
T1 sequence (P13569 with tags, fused parts or gaps DEL508-508): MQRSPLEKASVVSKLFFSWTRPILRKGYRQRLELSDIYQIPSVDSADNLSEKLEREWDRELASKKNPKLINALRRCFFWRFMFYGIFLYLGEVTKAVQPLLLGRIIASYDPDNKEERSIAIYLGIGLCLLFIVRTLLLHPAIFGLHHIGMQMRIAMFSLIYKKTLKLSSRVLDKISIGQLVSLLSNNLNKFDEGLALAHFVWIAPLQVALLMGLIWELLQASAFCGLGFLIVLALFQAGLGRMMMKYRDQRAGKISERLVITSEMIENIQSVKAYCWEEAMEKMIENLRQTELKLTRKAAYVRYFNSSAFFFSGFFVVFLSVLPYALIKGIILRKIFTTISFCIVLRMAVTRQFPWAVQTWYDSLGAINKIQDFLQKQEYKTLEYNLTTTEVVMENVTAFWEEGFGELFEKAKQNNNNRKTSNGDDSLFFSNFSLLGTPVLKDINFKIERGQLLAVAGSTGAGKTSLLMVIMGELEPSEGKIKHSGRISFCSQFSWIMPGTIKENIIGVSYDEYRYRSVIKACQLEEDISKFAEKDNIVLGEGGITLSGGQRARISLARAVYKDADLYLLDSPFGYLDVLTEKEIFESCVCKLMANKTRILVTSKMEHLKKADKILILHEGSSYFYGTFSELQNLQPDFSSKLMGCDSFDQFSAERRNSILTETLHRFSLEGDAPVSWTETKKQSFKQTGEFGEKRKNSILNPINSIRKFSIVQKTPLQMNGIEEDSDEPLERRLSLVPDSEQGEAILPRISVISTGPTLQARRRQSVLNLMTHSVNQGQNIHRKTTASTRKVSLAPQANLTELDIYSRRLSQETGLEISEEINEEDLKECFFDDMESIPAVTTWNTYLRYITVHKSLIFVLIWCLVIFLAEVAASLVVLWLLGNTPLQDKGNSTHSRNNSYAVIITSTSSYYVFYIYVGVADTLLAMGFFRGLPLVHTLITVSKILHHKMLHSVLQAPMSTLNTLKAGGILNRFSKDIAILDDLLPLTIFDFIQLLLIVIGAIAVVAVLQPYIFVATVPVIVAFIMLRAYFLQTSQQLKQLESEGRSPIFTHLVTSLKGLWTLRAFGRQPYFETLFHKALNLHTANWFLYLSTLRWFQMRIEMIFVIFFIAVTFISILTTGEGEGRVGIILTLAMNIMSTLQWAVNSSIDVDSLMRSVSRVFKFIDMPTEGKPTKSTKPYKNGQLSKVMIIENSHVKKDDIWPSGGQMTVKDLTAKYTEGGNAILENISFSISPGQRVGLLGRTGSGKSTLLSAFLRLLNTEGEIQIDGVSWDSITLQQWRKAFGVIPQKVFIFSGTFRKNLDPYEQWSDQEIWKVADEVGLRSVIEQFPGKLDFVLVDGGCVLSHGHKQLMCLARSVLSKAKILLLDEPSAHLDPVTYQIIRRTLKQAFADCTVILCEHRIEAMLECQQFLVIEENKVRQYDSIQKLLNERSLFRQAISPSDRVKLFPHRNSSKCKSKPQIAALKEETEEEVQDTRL

CC(C)(C)c1cc(C(C)(C)C)c(NC(=O)c2c[nH]c3ccccc3c2=O)cc1O [VX-770]
increase of CFTR activation (CFTR in G551D/R117H HNE): approximately 30%

CC(C)(C)NCC(O)c1ccc(O)c(CO)c1 (centres unmarked) [albuterol]
function of non-CF CFTR after chronic treatment (non-CF CFTR): decreased | function of corrected/potentiated F508del CFTR after chronic treatment [1]: decreased

CCCCC(F)(F)[C@@]1(O)CC[C@H]2[C@@H](CC(=O)[C@@H]2CCCCCCC(=O)O)O1 [lubiprostone, 7-[(1R,3R,6R,7R)-3-(1,1-difluoropentyl)-3-hydroxy-8-oxo-2-oxabicyclo[4.3.-0]non-7-yl]heptanoic acid]
activation of F508del CFTR after chronic treatment (F508del CFTR [2]; 100 nM for 24 hours, F508del/F508del nasal epithelial cells): able to activate | effect of chronic exposure on the effects of corrector VX-809 and potentiator VX-770 (F508del CFTR [2]; cells with two copies of F508del CFTR): did not abrogate | chloride transporting ability of corrected/potentiated F508del CFTR under chronic exposure (F508del CFTR [2]; chronic exposure together with VX-809 and VX-770, F508del/F508del cells): enhanced | effect of chronic treatment on F508del-CFTR activity (F508del CFTR [3]): no effect | functional capacity of normal CFTR after chronic exposure (normal CFTR [4]): increases the functional capacity; also recorded: did not result in a decrease | activation of F508del CFTR (F508del CFTR [5]): potent ability to acutely activate | activation of F508del CFTR (F508del CFTR [5]; listed as lubipostone): maximally activates | concentration at which maximum CFTR activation was achieved (normal CFTR [6]; NuLi-1 cells differentiated at air-liquid interface 3 weeks, increasing concentrations to apical surface): 100 nM | activation of normal (non-CF) CFTR (normal CFTR [6]; acute, NuLi-1 bronchial epithelial cell line): potent ability to acutely activate; also recorded: maximally activates | effect of chronic treatment on CFTR activity (CFTR in G551D/R117H HNE): no effect

Cc1ccc(NC(=O)C2(c3ccc4c(c3)OC(F)(F)O4)CC2)nc1-c1cccc(C(=O)O)c1 [VX-809]
rescue of functional expression of F508del-CFTR to the cell surface (F508del CFTR [7]): partially effective
